Data from PMC5615155 (Toxicology Reports, 2017).

Key:
[1] = single-dose pharmacokinetics and oral bioavailability; type: in vivo, Sprague-Dawley rats; settings: for AUClast / Cmax: S2218 in plasma
[2] = 13-week dietary toxicity study; type: in vivo, CD [Crl:CD(SD)] rats
solubility / dissolution = type: physicochemical
[3] = toxicokinetics in 13-week dietary study; type: in vivo, Sprague-Dawley rats; settings: for bioavailability of S8069 in 13-week study: male and female, range
[4] = S8069 oral gavage, 7.83 mg/kg bw S2218 equiv., F
[5] = S8069 oral gavage, 7.83 mg/kg bw S2218 equiv., M
[6] = S8069 oral gavage, 78.3 mg/kg bw S2218 equiv., F
[7] = S8069 oral gavage, 78.3 mg/kg bw S2218 equiv., M
[8] = 140 mg/kg bw/day females, p < 0.05
[9] = Day 7, 140 mg/kg bw diet, M + F
[10] = Day 91, 30 mg/kg bw diet, M + F
[11] = Day 91, 70 mg/kg bw diet, M + F
[12] = Day 91, 140 mg/kg bw diet, M + F

Cc1cc(C(=O)NC(C)(C)COc2cccc3c2C(N)=NS(=O)(=O)N3)cc(C)n1.O=S(=O)(O)O [S8069]
%F [1, 4]: 0.77% | Tmax [1, 4]: 0.250 ± 0.0 h | t1/2 [1, 4]: 1.15 ± 0.353 h | AUClast [1, 4]: 26.4 ± 14.3 ng·h/mL | Cmax [1, 4]: 24.4 ± 10.1 ng/mL | %F [1, 5]: 0.60% | Tmax [1, 5]: 0.313 ± 0.125 h | t1/2 [1, 5]: 0.786 ± 0.110 h | AUClast [1, 5]: 23.6 ± 5.26 ng·h/mL | Cmax [1, 5]: 21.4 ± 1.54 ng/mL | %F [1, 6]: 0.29% | Tmax [1, 6]: 0.250 ± 0.0 h | t1/2 [1, 6]: 0.969 ± 0.315 h | AUClast [1, 6]: 99.1 ± 23.2 ng·h/mL | Cmax [1, 6]: 106 ± 39.7 ng/mL | %F [1, 7]: 0.14% | Tmax [1, 7]: 0.250 ± 0.0 h | t1/2 [1, 7]: 0.860 ± 0.340 h | AUClast [1, 7]: 55.6 ± 17.8 ng·h/mL | Cmax [1, 7]: 60.5 ± 16.9 ng/mL | %F ([1]; oral, both test articles, male and female rats, all doses): 0.14–0.77% | pituitary/brain weight decrease vs control ([2]; 140 mg/kg bw/day females, p < 0.01): 17.7% | kidney/brain weight decrease vs control [2, 8]: 8.1% | liver/brain weight decrease vs control [2, 8]: 9.8% | pituitary gland mean absolute weight decrease vs control [2, 8]: 15.1% | pituitary/body weight decrease vs control [2, 8]: 14.6% | brain weight increase relative to control ([2]; 140 mg/kg bw/day females, p > 0.05): 3.4% | Findings ([2]; 30, 70, 140 mg/kg bw/day food ad-mix): No test-article related findings | margin of safety (NOAEL 140 mg/kg bw/day vs PADI 47 μg/kg bw/day) ([2]; rat, in vivo): > 2975 fold | solubility in water (solubility / dissolution): very soluble in water | state in 1% methylcellulose dosing formulation (solubility / dissolution; S8069 at 10 mg/mL, S2218 at all dose levels): completely dissolved | ACUM Ratio (dose-normalized AUC0-24h Day 91/Day 7) ([3]; 30 mg/kg bw, F): 1.35 | ACUM Ratio (dose-normalized AUC0-24h Day 91/Day 7) ([3]; 30 mg/kg bw, M): 2.86 | ACUM Ratio (dose-normalized AUC0-24h Day 91/Day 7) ([3]; 30 mg/kg bw, M + F): 1.88 | ACUM Ratio (dose-normalized AUC0-24h Day 91/Day 7) ([3]; 70 mg/kg bw, F): 0.821 | ACUM Ratio (dose-normalized AUC0-24h Day 91/Day 7) ([3]; 70 mg/kg bw, M): 1.07 | ACUM Ratio (dose-normalized AUC0-24h Day 91/Day 7) ([3]; 70 mg/kg bw, M + F): 0.954 | ACUM Ratio (dose-normalized AUC0-24h Day 91/Day 7) ([3]; 140 mg/kg bw, F): 0.768 | ACUM Ratio (dose-normalized AUC0-24h Day 91/Day 7) ([3]; 140 mg/kg bw, M): 4.55 | ACUM Ratio (dose-normalized AUC0-24h Day 91/Day 7) ([3]; 140 mg/kg bw, M + F): 2.30 | F:M Ratio (AUC0-24h/Dose) ([3]; Day 7, 30 mg/kg bw): 1.75 | AUC0-24h ([3]; Day 7, 30 mg/kg bw diet, F): 253 ng·h/mL | AUC0-24h/Dose ([3]; Day 7, 30 mg/kg bw diet, F): 9.10 ng·h/mL/mg/kg | Cmax ([3]; Day 7, 30 mg/kg bw diet, F): 20.1 ng/mL | Cmax/Dose ([3]; Day 7, 30 mg/kg bw diet, F): 0.723 ng/mL/mg/kg | Tmax ([3]; Day 7, 30 mg/kg bw diet, F): 3 h | AUC0-24h ([3]; Day 7, 30 mg/kg bw diet, M): 134 ng·h/mL | AUC0-24h/Dose ([3]; Day 7, 30 mg/kg bw diet, M): 5.19 ng·h/mL/mg/kg | Cmax ([3]; Day 7, 30 mg/kg bw diet, M): 14.0 ng/mL | Cmax/Dose ([3]; Day 7, 30 mg/kg bw diet, M): 0.543 ng/mL/mg/kg | Tmax ([3]; Day 7, 30 mg/kg bw diet, M): 1 h | AUC0-24h ([3]; Day 7, 30 mg/kg bw diet, M + F): 194 ng·h/mL | AUC0-24h/Dose ([3]; Day 7, 30 mg/kg bw diet, M + F): 7.24 ng·h/mL/mg/kg | Cmax ([3]; Day 7, 30 mg/kg bw diet, M + F): 11.1 ng/mL | Cmax/Dose ([3]; Day 7, 30 mg/kg bw diet, M + F): 0.414 ng/mL/mg/kg | Tmax ([3]; Day 7, 30 mg/kg bw diet, M + F): 3 h | F:M Ratio (AUC0-24h/Dose) ([3]; Day 7, 70 mg/kg bw): 0.914 | AUC0-24h ([3]; Day 7, 70 mg/kg bw diet, F): 610 ng·h/mL | AUC0-24h/Dose ([3]; Day 7, 70 mg/kg bw diet, F): 9.33 ng·h/mL/mg/kg | Cmax ([3]; Day 7, 70 mg/kg bw diet, F): 44.4 ng/mL | Cmax/Dose ([3]; Day 7, 70 mg/kg bw diet, F): 0.679 ng/mL/mg/kg | Tmax ([3]; Day 7, 70 mg/kg bw diet, F): 0 h | AUC0-24h ([3]; Day 7, 70 mg/kg bw diet, M): 641 ng·h/mL | AUC0-24h/Dose ([3]; Day 7, 70 mg/kg bw diet, M): 10.2 ng·h/mL/mg/kg | Cmax ([3]; Day 7, 70 mg/kg bw diet, M): 32.8 ng/mL | Cmax/Dose ([3]; Day 7, 70 mg/kg bw diet, M): 0.522 ng/mL/mg/kg | Tmax ([3]; Day 7, 70 mg/kg bw diet, M): 6 h | AUC0-24h ([3]; Day 7, 70 mg/kg bw diet, M + F): 626 ng·h/mL | AUC0-24h/Dose ([3]; Day 7, 70 mg/kg bw diet, M + F): 9.77 ng·h/mL/mg/kg | Cmax ([3]; Day 7, 70 mg/kg bw diet, M + F): 34.3 ng/mL | Cmax/Dose ([3]; Day 7, 70 mg/kg bw diet, M + F): 0.535 ng/mL/mg/kg | Tmax ([3]; Day 7, 70 mg/kg bw diet, M + F): 12 h | F:M Ratio (AUC0-24h/Dose) ([3]; Day 7, 140 mg/kg bw): 1.48 | AUC0-24h ([3]; Day 7, 140 mg/kg bw diet, F): 1640 ng·h/mL | AUC0-24h/Dose ([3]; Day 7, 140 mg/kg bw diet, F): 12.0 ng·h/mL/mg/kg | Cmax ([3]; Day 7, 140 mg/kg bw diet, F): 137 ng/mL | Cmax/Dose ([3]; Day 7, 140 mg/kg bw diet, F): 1.00 ng/mL/mg/kg | Tmax ([3]; Day 7, 140 mg/kg bw diet, F): 24 h | AUC0-24h ([3]; Day 7, 140 mg/kg bw diet, M): 1020 ng·h/mL | AUC0-24h/Dose ([3]; Day 7, 140 mg/kg bw diet, M): 8.16 ng·h/mL/mg/kg | Cmax ([3]; Day 7, 140 mg/kg bw diet, M): 57.0 ng/mL | Cmax/Dose ([3]; Day 7, 140 mg/kg bw diet, M): 0.456 ng/mL/mg/kg | Tmax ([3]; Day 7, 140 mg/kg bw diet, M): 6 h | AUC0-24h [3, 9]: 1330 ng·h/mL | AUC0-24h/Dose [3, 9]: 10.15 ng·h/mL/mg/kg | Cmax [3, 9]: 86.5 ng/mL | Cmax/Dose [3, 9]: 0.660 ng/mL/mg/kg | Tmax [3, 9]: 6 h | bioavailability of S8069 in 13-week study ([3]; Day 7, food ad-mix): 1.28–3.36% | F:M Ratio (AUC0-24h/Dose) ([3]; Day 91, 30 mg/kg bw): 0.828 | AUC0-24h ([3]; Day 91, 30 mg/kg bw diet, F): 376 ng·h/mL | AUC0-24h/Dose ([3]; Day 91, 30 mg/kg bw diet, F): 12.3 ng·h/mL/mg/kg | Cmax ([3]; Day 91, 30 mg/kg bw diet, F): 58.8 ng/mL | Cmax/Dose ([3]; Day 91, 30 mg/kg bw diet, F): 1.93 ng/mL/mg/kg | Tmax ([3]; Day 91, 30 mg/kg bw diet, F): 6 h | AUC0-24h ([3]; Day 91, 30 mg/kg bw diet, M): 427 ng·h/mL | AUC0-24h/Dose ([3]; Day 91, 30 mg/kg bw diet, M): 14.9 ng·h/mL/mg/kg | Cmax ([3]; Day 91, 30 mg/kg bw diet, M): 35.8 ng/mL | Cmax/Dose ([3]; Day 91, 30 mg/kg bw diet, M): 1.25 ng/mL/mg/kg | Tmax ([3]; Day 91, 30 mg/kg bw diet, M): 6 h | AUC0-24h [3, 10]: 402 ng·h/mL | AUC0-24h/Dose [3, 10]: 13.6 ng·h/mL/mg/kg | Cmax [3, 10]: 47.3 ng/mL | Cmax/Dose [3, 10]: 1.60 ng/mL/mg/kg | Tmax [3, 10]: 6 h | F:M Ratio (AUC0-24h/Dose) ([3]; Day 91, 70 mg/kg bw): 0.703 | AUC0-24h ([3]; Day 91, 70 mg/kg bw diet, F): 507 ng·h/mL | AUC0-24h/Dose ([3]; Day 91, 70 mg/kg bw diet, F): 7.67 ng·h/mL/mg/kg | Cmax ([3]; Day 91, 70 mg/kg bw diet, F): 27.8 ng/mL | Cmax/Dose ([3]; Day 91, 70 mg/kg bw diet, F): 0.421 ng/mL/mg/kg | Tmax ([3]; Day 91, 70 mg/kg bw diet, F): 0 h | AUC0-24h ([3]; Day 91, 70 mg/kg bw diet, M): 748 ng·h/mL | AUC0-24h/Dose ([3]; Day 91, 70 mg/kg bw diet, M): 10.9 ng·h/mL/mg/kg | Cmax ([3]; Day 91, 70 mg/kg bw diet, M): 60.4 ng/mL | Cmax/Dose ([3]; Day 91, 70 mg/kg bw diet, M): 0.880 ng/mL/mg/kg | Tmax ([3]; Day 91, 70 mg/kg bw diet, M): 3 h | AUC0-24h [3, 11]: 627 ng·h/mL | AUC0-24h/Dose [3, 11]: 9.32 ng·h/mL/mg/kg | Cmax [3, 11]: 40.0 ng/mL | Cmax/Dose [3, 11]: 0.594 ng/mL/mg/kg | Tmax [3, 11]: 3 h | F:M Ratio (AUC0-24h/Dose) ([3]; Day 91, 140 mg/kg bw): 0.248 | AUC0-24h ([3]; Day 91, 140 mg/kg bw diet, F): 1120 ng·h/mL | AUC0-24h/Dose ([3]; Day 91, 140 mg/kg bw diet, F): 9.18 ng·h/mL/mg/kg | Cmax ([3]; Day 91, 140 mg/kg bw diet, F): 85.0 ng/mL | Cmax/Dose ([3]; Day 91, 140 mg/kg bw diet, F): 0.697 ng/mL/mg/kg | Tmax ([3]; Day 91, 140 mg/kg bw diet, F): 12 h | AUC0-24h ([3]; Day 91, 140 mg/kg bw diet, M): 4550 ng·h/mL | AUC0-24h/Dose ([3]; Day 91, 140 mg/kg bw diet, M): 37.0 ng·h/mL/mg/kg | Cmax ([3]; Day 91, 140 mg/kg bw diet, M): 358 ng/mL | Cmax/Dose ([3]; Day 91, 140 mg/kg bw diet, M): 2.91 ng/mL/mg/kg | Tmax ([3]; Day 91, 140 mg/kg bw diet, M): 12 h | AUC0-24h [3, 12]: 2840 ng·h/mL | AUC0-24h/Dose [3, 12]: 23.3 ng·h/mL/mg/kg | Cmax [3, 12]: 222 ng/mL | Cmax/Dose [3, 12]: 1.82 ng/mL/mg/kg | Tmax [3, 12]: 12 h | bioavailability of S8069 in 13-week study ([3]; Day 91, food ad-mix): 2.15–9.14%
